# Source: patent US8093060B2, “Multisite phosphorylated peptide (protein) recognizing compound and detection method, imaging method, alzheimer's disease diagnosing method and reagent kit using the same” (Canon Kabushiki Kaisha, priority 2008, dated 2012)
# Biological target: T1, nonphosphorylated Tau aggregate (n-Tau) (Homo sapiens, UniProt P10636)
# T1 construct: made in house; host or cells: Escherichia coli
# Assay: Fluorescence staining of nonphosphorylated tau aggregate prepared in vitro
# Type: binding
# Settings: 10 μM dye
# Description: Tau proteins (8 μM) expressed by Escherichia coli and heparin (1.6 μM) were incubated at 37° C. for 20 days to prepare a tau aggregate. A phosphorylated tau aggregate was similarly prepared using tau proteins phosphorylated with GSK-3β in vitro. The results of Pro-Q diamond staining after performing SDS-PAGE confirmed that the in-vitro phosphorylation was performed with a phosphorylation degree of 6 mol P/mol Tau.
# 10 μM BODIPY-Zn(Dpa) or 10 μM thioflavine T (may be referred to as ThT) were added to the prepared tau aggregate or phosphorylated tau aggregate. After the addition, the mixture was washed twice with 0.5 mM Zn(NO3)2, and a suspension (0.5 μL) of the stained phosphorylated tau aggregate was air-dried on a cover glass and observed under a confocal laser scanning microscope (OLYMPUS FV-1000, Obj. lens 100×).
# T1 sequence (P10636 1-441 isoform P10636-8): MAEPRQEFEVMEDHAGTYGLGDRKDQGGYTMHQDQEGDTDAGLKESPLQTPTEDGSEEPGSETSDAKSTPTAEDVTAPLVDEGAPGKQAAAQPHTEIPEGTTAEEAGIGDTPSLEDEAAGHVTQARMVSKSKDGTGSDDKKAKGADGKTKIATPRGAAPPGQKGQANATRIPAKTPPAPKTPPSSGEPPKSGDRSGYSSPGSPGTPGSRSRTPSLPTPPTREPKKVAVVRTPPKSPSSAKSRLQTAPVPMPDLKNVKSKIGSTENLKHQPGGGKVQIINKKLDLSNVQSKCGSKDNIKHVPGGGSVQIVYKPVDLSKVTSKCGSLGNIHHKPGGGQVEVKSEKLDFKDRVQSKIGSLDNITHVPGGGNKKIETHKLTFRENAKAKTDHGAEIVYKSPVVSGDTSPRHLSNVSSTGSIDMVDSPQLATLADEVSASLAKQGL
smiles,measurement,value
CC1=C(c2ccc(CN(C)Cc3ccccn3)nc2)C(C)=[N+]2C1=C(c1cc(OCCOCCOCCO)cc(OCCOCCOCCO)c1)c1c(C)c(-c3ccc(CN(C)Cc4ccccn4)nc3)c(C)n1[B-]2(F)F.O=[N+]([O-])[O-].O=[N+]([O-])[O-].O=[N+]([O-])[O-].O=[N+]([O-])[O-].[Zn+2].[Zn+2] [BODIPY-Zn(Dpa)],staining of aggregate,is not observed
